According to patent publication US20090047221A1 (NIPRI LIMITED, priority 2004, published 2009):

Assays:
Type in all cases: cell-based
MalMe3M = experiment: MTT assay (anti-proliferative activity); conditions: 96 h continual exposure, read-out: IC 50 MalMe3M
MDA-MB-468 = experiment: MTT assay (anti-proliferative activity); conditions: 96 h continual exposure, read-out: IC 50 MDA-MB-468
MCF-7 = experiment: MTT assay (anti-proliferative activity); conditions: 96 h continual exposure, read-out: IC 50 MCF-7
SkMel28 = experiment: MTT assay (anti-proliferative activity); conditions: 96 h continual exposure, read-out: IC 50 SkMel28
[1] = test system: breast cancer (MDA-MB-468 and MCF-7 cell lines) and melanoma cell lines (MalMe3, SkMe128); experiment: Cell cycle analysis by flow cytometry (propidium iodide); apoptosis as cells in sub G0/G1 (pre G0) peak; conditions: following treatment with IC70 concentration of compound
Method: Assessment of cell cycle analysis was performed using propidium iodide staining of cells and subsequent analysis on a Beckton Dickinson flow cytometer. […] The following day the medium was removed and replaced with 5 ml medium per flask containing the appropriate drug concentrations to be tested. 40 mg/ml stock drug solutions in DMSO were stores at −20° C. and on the day off drug treatment working solutions of 4 mg/ml were prepared in medium from which the final drug dilutions were prepared. Cells were maintained in an incubator (37° C., 5% CO2) for up to 96 h post treatment. After 24, 48, 72 or 96 h time points the medium from each flask was collected, stored on ice, and the remaining cells in the flasks were trypsinised by aiding 1 ml trypsin-EDTA solution to each flask. Cells were replaced into the incubator for 10 min to allow them to detach from the plastic plate. The cells in each flask were collected by adding the appropriate medium removed from each flask back to the corresponding flask and then placing medium containing both the attached and floating cells into a 15 ml tube. Cells were centrifuged at 4° C. for 5 min at 1500 rpm and the supernatant removed from each tube. The remaining cells were washed twice in ice cold PBS and then fixed in ice cold methanol overnight at −20° C. On the day of analysis of cells each tube was centrifuged at 4° C. for 5 min at 1500 rpm and the methanol removed and the cells washed twice in ice cold PBS. 20 μl propidium iodide solution (1 mg/ml) and 20 μl RNase A (10 mg/ml solution) were added to 1 ml PBS per tube and the cells were incubated for 30 min at 37° C. Cells were analysed on the flow cytometer and cell cycle changes were assessed.

HCT+/+ = experiment: MTT assay (anti-proliferative activity)
Source text: (§1) The MTT assay was used initially to determine the anti-proliferative activity of the test compounds. In the MTT assay a yellow thiazolyl blue tetrazolium bromide salt (MTT) is reduced, in metabolically active cells, to form insoluble purple formazan crystals which are solubilised by the addition of dimethyl sulphoxide (DMSO). Absorbance readings can then be determined spectrophotometrically and a relationship established between control untreated cells and drug treated cells enabling the quantification of anti-proliferative changes as a result of drug treatment (Mosmann, 1983).
(§2) Wells containing medium only were used as blanks. Following the attachment period, cells were treated with appropriate drug concentrations (20 μl added per well). 40 mg/ml stock drug solutions, in DMSO, were stored at −20° C. and on the day of drug treatment working solutions of 4 mg/ml were prepared in medium which was further diluted to achieve final drug dilution volumes of 20 μl. Initial screening was determined over a concentration range of 1-200 μg/ml. For potent compounds the assay was repeated over a narrower concentration range to determine accurate IC50 values. Cells were exposed to drug for 96 h continual exposure (37° C., 5% CO2). Following the 96 h incubation, 50 μl MTT solution (1 g MTT/500 ml PBS) was added per well and the plates were further incubated for 4 h (37° C., 5% CO2). After incubation the MTT and medium was removed from the wells and 100 μl DMSO added per well. Plates were agitated on an orbital mixer platform (Stuart Scientific) for 10 minutes. Absorbance was measured at 570 nm on a Biotrak II (Amersham Bioscience) plate reader. IC50 values were calculated comparing control and drug treated cells.

RKO = experiment: MTT assay (anti-proliferative activity)
Source text: as §1, §2

ZR-75-1 = experiment: MTT assay (anti-proliferative activity)
Source text: as §1, §2

LNCAP = experiment: MTT assay (anti-proliferative activity)
Source text: as §1, §2

PNT2 = experiment: MTT assay (anti-proliferative activity)
Source text: as §1, §2

HT29 = experiment: MTT assay (anti-proliferative activity)
Source text: as §1, §2

HCT−/− = experiment: MTT assay (anti-proliferative activity)
Source text: as §1, §2

PC3 = experiment: MTT assay (anti-proliferative activity)
Source text: as §1, §2

H23 = experiment: MTT assay (anti-proliferative activity)
Source text: as §1, §2

Row | SMILES | IC50 (MalMe3M) | IC50 (MDA-MB-468) | IC50 (MCF-7) | IC50 (SkMel28) | % Cells in Pre G0 phase of Cell Cycle [1] | IC50 (HCT+/+) | IC50 (RKO) | IC50 (ZR-75-1) | IC50 (LNCAP) | IC50 (PNT2) | IC50 (HT29) | IC50 (HCT−/−) | IC50 (PC3) | IC50 (H23)
1 | CCCCCCNC(=O)c1ccc2c(c1O)C(=O)OC(C)C2 (racemic) [ALM-49, Hexyl Amide] | 65.5 µM | 3.3 µM | 26.2 µM | 105 µM | 14.1% |  |  |  |  |  |  |  |  | 
2 | CC(C)CC(NC(=O)c1ccc2c(c1O)C(=O)OC(C)C2)C(=O)OC(C)(C)C (mixture of isomers) [ALM-55, Leucine Tert-Butyl Ester Amide] | 22.9 µM | 12.8 µM | 43.4 µM | 79.2 µM | 3.4% |  |  |  |  |  |  |  |  | 
3 | CC1(C)Cc2ccc(C(=O)N[C@@H](Cc3ccccc3)C(=O)O)c(O)c2C(=O)O1 [ALM-74, L-Phenyl Alanine Amide of Compound ALM-73] | 7.8 µM | 1.83 µM | 2.21 µM | 11.7 µM | 34.4% |  |  |  |  |  |  |  |  | 
4 | CCCCC/C=C\C/C=C\C/C=C\CCCCCOC(=O)c1ccc2c(c1O)C(=O)OC(C)C2 (racemic) [ALM-43, γ-Linolenyl Ester] | 23.5 µM | 4.3 µM | 2.3 µM | 21.3 µM | 11.8% | 21.3 µM | 10.7 µM | 6.4 µM | 10.7 µM | 5.3 µM | 18.7 µM | 42.7 µM | 9.6 µM | 2.1 µM
